Data on three compounds can be found in patent publication US5466671A, “Apidaecin-type peptide antibiotics with improved activities and/or different antibacterial spectrum” (priority 1994, dated 1995).

Residues, ends and D or L forms follow the SMILES beside them. No end group written: not given here.

Experiment [1] has as its system Escherichia coli (ATCC11775). In words: Inhibition zone assay (agar plate). It is filed as cell-based. The conditions noted are these: agar plate, 50 nanomoles/well, 3 mm wells.
The subject of another experiment is Escherichia coli (K514). It is filed as cell-based. The conditions noted are these: agar plate, 50 nanomoles/well, 3 mm wells.
The subject of the next experiment is Enterobacter cloacae. In words: Inhibition zone assay (agar plate). It is filed as cell-based. The conditions noted are these: agar plate, 50 nanomoles/well, 3 mm wells.
Another experiment deals with Erwinia amylovora. In words: Inhibition zone assay (agar plate). It is filed as cell-based. The conditions noted are these: agar plate, 50 nanomoles/well, 3 mm wells.
Another experiment deals with Klebsiella pneumoniae. In words: Inhibition zone assay (agar plate). The conditions noted are these: agar plate, 50 nanomoles/well, 3 mm wells. The class given is cell-based.
The test system of another experiment is Salmonella typhimurium. In words: Inhibition zone assay (agar plate). It is filed as cell-based. The conditions noted are these: agar plate, 50 nanomoles/well, 3 mm wells.
The subject of the next experiment is Yersinia enterocolitica. In words: Inhibition zone assay (agar plate). The class given is cell-based. The conditions noted are these: 50 nanomoles/well, 3 mm wells.
For experiment [2], the system named is Agrobacterium tumefaciens. In words: Inhibition zone assay (agar plate). The class given is cell-based. The conditions noted are these: agar plate, 50 nanomoles/well, 3 mm wells.
In another experiment the test system is Francisella tularensis. It is filed as cell-based. The conditions noted are these: agar plate, 50 nanomoles/well, 3 mm wells.
The test system of a further experiment is Pseudomonas syringae. Put plainly: Inhibition zone assay (agar plate). The conditions noted are these: agar plate, 50 nanomoles/well, 3 mm wells. It is filed as cell-based.
A further experiment has as its system Rhizobium meliloti. In words: Inhibition zone assay (agar plate). It is filed as cell-based. The conditions noted are these: 50 nanomoles/well, 3 mm wells.
For another experiment, the system named is Haemophilus influenzae. In words: Inhibition zone assay (agar plate). It is filed as cell-based. The conditions noted are these: 50 nanomoles/well, 3 mm wells.
The subject of the next experiment is E. coli Apid^R. In words: Minimal inhibitory concentration (liquid culture). The conditions noted are these: a-b = highest concentration with growth - lowest without growth. It is filed as cell-based. The source says: For details see `Experimental Procedures`.
In the next experiment the test system is E. coli 11775. Put plainly: Minimal inhibitory concentration (liquid culture). The conditions noted are these: a-b = highest concentration with growth - lowest without growth.
In another experiment the test system is E. coli 23802. Put plainly: Minimal inhibitory concentration (liquid culture). The conditions noted are these: inoculum 5000 CFU/ml; a-b = highest concentration with growth - lowest without growth.
A further experiment concerns E. coli 25922. In words: Minimal inhibitory concentration (liquid culture). The conditions noted are these: inoculum 1100 CFU/ml; a-b = highest concentration with growth - lowest without growth.
A further experiment deals with S. typhimurium. In words: Minimal inhibitory concentration (liquid culture). The conditions noted are these: inoculum 8 × 10^6 CFU/ml; a-b = highest concentration with growth - lowest without growth.
Another experiment concerns A. calcoaceticus. In words: Minimal inhibitory concentration (liquid culture). The conditions noted are these: inoculum 16 × 10^6 CFU/ml; a-b = highest concentration with growth - lowest without growth.
For the next experiment, the system named is M. morganii. Put plainly: Minimal inhibitory concentration (liquid culture). The conditions noted are these: inoculum 400 CFU/ml; a-b = highest concentration with growth - lowest without growth.
The test system of the next experiment is Y. enterocolitica. In words: Minimal inhibitory concentration (liquid culture). The conditions noted are these: inoculum 5000 CFU/ml; a-b = highest concentration with growth - lowest without growth.
Experiment [3] deals with Escherichia coli (11775 Apid R). It is filed as cell-based. The conditions noted are these: agar plate, 50 nanomoles/well, 3 mm wells.
Another experiment deals with Morganella morganii. Put plainly: Inhibition zone assay (agar plate). The conditions noted are these: 50 nanomoles/well, 3 mm wells. It is filed as cell-based.
In a further experiment the test system is Campylobacter jejuni. In words: Inhibition zone assay (agar plate). The class given is cell-based. The conditions noted are these: 50 nanomoles/well, 3 mm wells.
Experiment [4] concerns Acinetobacter calcoaceticus. Put plainly: Inhibition zone assay (agar plate). The conditions noted are these: agar plate, 50 nanomoles/well, 3 mm wells. It is filed as cell-based.
Another experiment relates to Legionella pneumophila. It is filed as cell-based. The conditions noted are these: agar plate, 50 nanomoles/well, 3 mm wells.

As for NRPTYVPPPRPPHPRL [Ck P], the “inhibition zone diameter (number of plus signs)” value (“inhibition zone diameter” below) was “+++ ((+++) 10-14 mm)” in experiment [1]; “++ ((++) 7-9 mm)” in the experiment on Escherichia coli (K514); “+++ ((+++) 10-14 mm)” in the experiment with Enterobacter cloacae; “+++ ((+++) 10-14 mm)” in the experiment with Erwinia amylovora; “++ ((++) 7-9 mm)” with Klebsiella pneumoniae; “++++ ((++++) 15-19 mm)” in the experiment on Salmonella typhimurium. Moreover, the “inhibition zone diameter” value in the experiment with Yersinia enterocolitica is “+++ ((+++) 10-14 mm)”; in [2] it was “++++ ((++++) 15-19 mm)”; in the experiment on Francisella tularensis, “++ ((++) 7-9 mm)”; in the experiment on Pseudomonas syringae, “++++ ((++++) 15-19 mm)”; in the experiment on Rhizobium meliloti it was “+++++ ((+++++) 20 or more min)”; with Haemophilus influenzae it was “++ ((++) 7-9 mm)”. Besides, the “minimal inhibitory concentration (MIC)” value is > 40 µg/mL in the experiment with E. coli Apid^R (inoculum 12 × 10^6 CFU/ml); > 40 µg/mL in the experiment on E. coli Apid^R (inoculum 1000 CFU/ml); 1 to 5 µg/mL in the experiment with E. coli 11775 (inoculum 16 × 10^6 CFU/ml); 0.1 to 0.5 µg/mL in the experiment on E. coli 11775 (inoculum 1200 CFU/ml); 20 to 40 µg/mL in the experiment on E. coli 23802; 0.5 to 1 µg/mL with E. coli 25922. Moreover, the “minimal inhibitory concentration (MIC)” value is 1 to 5 µg/mL in the experiment on S. typhimurium, > 20 µg/mL with A. calcoaceticus, > 40 µg/mL with M. morganii and 1 to 5 µg/mL in the experiment on Y. enterocolitica.

Take `CC[C@H](C)[C@H](NC(=O)[C@@H]1CCCN1C(=O)[C@H](C)NC(=O)[C@@H]1CCCN1C(=O)[C@H](CCCNC(=N)N)NC(=O)[C@@H]1CCCN1C(=O)[C@H](CCCNC(=N)N)NC(=O)[C@H](CC(N)=O)NC(=O)[C@@H]1CCCN1C(=O)[C@H](CCCCN)NC(=O)CN)C(=O)N[C@@H](CCC(N)=O)C(=O)N1CCC[C@H]1C(=O)N[C@@H](CCCNC(=N)N)C(=O)N1CCC[C@H]1C(=O)N1CCC[C@H]1C(=O)N[C@@H](Cc1c[nH]cn1)C(=O)N1CCC[C@H]1C(=O)N[C@@H](CCCNC(=N)N)C(=O)N[C@@H](CC(C)C)C(=O)O` [Cd 1+, Gly--Lys--Pro--Asn--Arg--Pro--Arg--Pro--Ala--Pro--Ile--Gln--Pro--Arg--Pro--Pro--His--Pro--Arg--Leu] (H-GKPNRPRPAPIQPRPPHPRL-OH): the “inhibition zone diameter” value in experiment [1] was “++ ((++) 7-9 mm)”; in experiment [3] it was “++ ((++) 7-9 mm)”; with Escherichia coli (K514), “++ ((++) 7-9 mm)”; in the experiment with Enterobacter cloacae it was “+++ ((+++) 10-14 mm)”; in the experiment with Erwinia amylovora it was “++ ((++) 7-9 mm)”; in the experiment with Klebsiella pneumoniae, “++ ((++) 7-9 mm)”. Further, the “inhibition zone diameter” value was “++ ((++) 7-9 mm)” with Morganella morganii; “++ ((++) 7-9 mm)” in the experiment on Salmonella typhimurium; “+++ ((+++) 10-14 mm)” with Campylobacter jejuni; “++ ((++) 7-9 mm)” in [4]; “++++ ((++++) 15-19 mm)” in [2]; “++ ((++) 7-9 mm)” with Legionella pneumophila. The “inhibition zone diameter” value in the experiment with Pseudomonas syringae, in the experiment on Rhizobium meliloti and in the experiment with Haemophilus influenzae was “++++ ((++++) 15-19 mm)” throughout. Moreover, the “minimal inhibitory concentration (MIC)” value with E. coli 11775 (inoculum 16 × 10^6 CFU/ml) is > 20 µg/mL; in the experiment on E. coli 11775 (inoculum 1200 CFU/ml), 10 to 20 µg/mL; with E. coli 23802, 10 to 20 µg/mL; with E. coli 25922, 10 to 20 µg/mL; in the experiment on S. typhimurium, 10 to 20 µg/mL; in the experiment with A. calcoaceticus, > 20 µg/mL. The “minimal inhibitory concentration (MIC)” value in the experiment with M. morganii was 10 to 20 µg/mL; in the experiment on Y. enterocolitica, 20 to 40 µg/mL.

As for `CC(C)C[C@H](NC(=O)[C@H](CCCNC(=N)N)NC(=O)[C@@H]1CCCN1C(=O)[C@H](Cc1c[nH]cn1)NC(=O)[C@@H]1CCCN1C(=O)[C@@H]1CCCN1C(=O)[C@H](CCCNC(=N)N)NC(=O)[C@@H]1CCCN1C(=O)[C@H](C)NC(=O)[C@@H]1CCCN1C(=O)[C@@H](NC(=O)[C@H](Cc1ccc(O)cc1)NC(=O)[C@@H](NC(=O)[C@@H]1CCCN1C(=O)[C@H](CCCNC(=N)N)NC(=O)[C@@H](N)CC(N)=O)[C@@H](C)O)C(C)C)C(=O)O` [Ck A, Asn--Arg--Pro--Thr--Tyr--Val--Pro--Ala--Pro--Arg--Pro--Pro--His--Pro--Arg--Leu] (H-NRPTYVPAPRPPHPRL-OH), the “inhibition zone diameter” value in [1] is reported as “+++ ((+++) 10-14 mm)”; in the experiment with Escherichia coli (K514), “++ ((++) 7-9 mm)”; with Enterobacter cloacae, “++ ((++) 7-9 mm)”; in the experiment on Erwinia amylovora, “+++ ((+++) 10-14 mm)”; in the experiment with Klebsiella pneumoniae, “++ ((++) 7-9 mm)”; in the experiment on Salmonella typhimurium it was “+++ ((+++) 10-14 mm)”. In addition, the “inhibition zone diameter” value in the experiment with Yersinia enterocolitica was “+++ ((+++) 10-14 mm)”; in experiment [2], “++++ ((++++) 15-19 mm)”; in the experiment with Francisella tularensis it was “+ ((+) 5-6 mm)”; in the experiment on Pseudomonas syringae, “+++ ((+++) 10-14 mm)”; in the experiment on Rhizobium meliloti, “++++ ((++++) 15-19 mm)”; in the experiment with Haemophilus influenzae, “++ ((++) 7-9 mm)”. For the same compound, the “minimal inhibitory concentration (MIC)” value is > 40 µg/mL with E. coli Apid^R (inoculum 12 × 10^6 CFU/ml); > 40 µg/mL in the experiment with E. coli Apid^R (inoculum 1000 CFU/ml); 1 to 5 µg/mL in the experiment on E. coli 11775 (inoculum 16 × 10^6 CFU/ml); 0.1 to 0.5 µg/mL in the experiment on E. coli 11775 (inoculum 1200 CFU/ml); > 40 µg/mL with E. coli 23802; 1 to 5 µg/mL with E. coli 25922. Also, the “minimal inhibitory concentration (MIC)” value in the experiment on S. typhimurium is 1 to 5 µg/mL; with A. calcoaceticus it was > 20 µg/mL; in the experiment on M. morganii, 20 to 40 µg/mL; in the experiment on Y. enterocolitica, 1 to 5 µg/mL.
